Data taken from US20240252488A1 (KOREA RESEARCH INSTITUTE OF CHEMICAL TECHNOLOGY, priority 2020, published 2024).

Experiments:
FADD−/− Jurkat cells = assay: Necroptosis inhibition assay, TNF-α-induced necroptosis (CellTiter-Glo 2.0); assay type: cell-based, human; conditions: TNF-α 15 ng/mL; for Necroptosis inhibition assay (Rescue %) 1 μM: compound 1 μM; for Necroptosis inhibition assay (Rescue %) 10 μM: compound 10 μM
Outline: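 Cmpd 0.1/1/10 μM final, 30 min RT preincubation; TNF-α 15 ng/mL final; 20–24 h, 37° C, 5% CO2. Readout: ATP luminescence (reagent 1:3 in PBS), 0.5 s/well. Cytotoxicity and % necroptosis inhibition calculated from signal.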

MLKL [1] = biological target: T1, MLKL (Homo sapiens, UniProt Q8NB16); assay: MLKL degradation assay in HepG2 cell line (western blot); assay type: cell-based; parameters: endogenous in cells; host or cells: HepG2 or HaCaT; conditions: cell line not given; for Degradation assay (Degradation %) 1 μM: compound 1 μM; for Degradation assay (Degradation %) 10 μM: compound 10 μM
T1 sequence (Q8NB16 1-471): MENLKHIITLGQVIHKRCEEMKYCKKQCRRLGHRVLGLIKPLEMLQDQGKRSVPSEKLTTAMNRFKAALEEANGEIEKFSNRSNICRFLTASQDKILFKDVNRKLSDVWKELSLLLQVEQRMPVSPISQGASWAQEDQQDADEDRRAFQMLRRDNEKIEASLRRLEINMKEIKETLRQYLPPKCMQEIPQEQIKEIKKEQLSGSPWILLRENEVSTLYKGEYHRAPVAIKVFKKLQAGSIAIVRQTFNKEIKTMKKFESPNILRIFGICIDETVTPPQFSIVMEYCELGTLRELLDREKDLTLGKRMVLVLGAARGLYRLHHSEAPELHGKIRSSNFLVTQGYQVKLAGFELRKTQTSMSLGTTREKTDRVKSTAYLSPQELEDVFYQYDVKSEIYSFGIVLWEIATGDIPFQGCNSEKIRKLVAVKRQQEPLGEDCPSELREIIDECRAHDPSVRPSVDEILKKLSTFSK
Outline: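 HepG2, cpd final 1 or 10 μM, 20-24 h, 37 °C/5% CO2; RIPA lysis, BCA-normalized, 10-15 μg/lane SDS-PAGE, western blot, ECL read-out.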

MLKL [2] = biological target: T1, MLKL; assay: Measurement of binding affinity with MLKL receptor (competitive binding assay, Kd); parameters: made in house; host or cells: HEK 293 cell line (T7 phage in E. coli BL21-derived host is also described)
Outline: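 Competitive displacement of MLKL, expressed in HEK 293 cells and DNA-tagged for qPCR, from immobilized ligand on biotin-blocked beads. Compounds were added from 111× DMSO stocks (final DMSO 0.9%). Kinase left in the eluates was quantified by qPCR to give Kd.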

| Structure (SMILES) | Necroptosis inhibition assay (Rescue %) 1 μM (FADD−/− Jurkat cells) [%] | Necroptosis inhibition assay (Rescue %) 10 μM (FADD−/− Jurkat cells) [%] | Degradation assay (Degradation %) 1 μM (MLKL [1]) [%] | Degradation assay (Degradation %) 10 μM (MLKL [1]) [%] | Kd (MLKL [2]) [nM] | Necroptosis inhibition assay (Rescue %) 1 μM (FADD−/− Jurkat cells; FADD−/− Jurkat cells) [%] | Necroptosis inhibition assay (Rescue %) 10 μM (FADD−/− Jurkat cells; FADD−/− Jurkat cells) [%] |
| --- | --- | --- | --- | --- | --- | --- | --- |
| Nc1ncc(-c2cnn(C3CCN(C[C@H]4CC[C@H](CNc5cccc6c5C(=O)N(C5CCC(=O)NC5=O)C6=O)CC4)CC3)c2)nc1C(=O)O[C@@H](C(=O)Nc1ccc(F)cc1)c1ccccc1 (stereo partly drawn) [TDH-351, (R)-2-((4-fluorophenyl)amino)-2-oxo-1-phenylethyl 3-amino-6-(1-(1-(((1r,4r)-4-(((2-(2,6-dioxopiperidin-3-yl)-1,3-dioxoisoindolin-4-yl)amino)methyl)cyclohexyl)methyl)piperidin-4-yl)-1H-pyrazol-4-yl)pyrazine-2-carboxylate] | 0.74 | 3.39 | 62.4 | 24.61 | 6.1 | – | – |
| Nc1ncc(-c2cnn(C3CN(CC4CCN(C(=O)CNc5ccc6c(c5)C(=O)N(C5CCC(=O)NC5=O)C6=O)CC4)C3)c2)nc1C(=O)OC(C(=O)Nc1ccc(F)cc1)c1ccccc1 (stereo not shown) [TDH-297, 2-((4-fluorophenyl)amino)-2-oxo-1-phenylethyl 3-amino-6-(1-(1-((1-((2-(2,6-dioxopiperidin-3-yl)-1,3-dioxoisoindolin-5-yl)glycyl)piperidin-4-yl)methyl)azetidin-3-yl)-1H-pyrazol-4-yl)pyrazine-2-carboxylate] | 74.28 | 63.92 | 76.86 | 70.16 | 13 | – | – |
| Nc1ncc(-c2cnn(C3CCN(C(=O)COC4CCN(C(=O)CNc5ccc6c(c5)C(=O)N(C5CCC(=O)NC5=O)C6=O)CC4)CC3)c2)nc1C(=O)O[C@@H](C(=O)Nc1ccc(F)cc1)c1ccccc1 (stereo partly drawn) [TDH-396, (R)-2-((4-fluorophenyl)amino)-2-oxo-1-phenylethyl 3-amino-6-(1-(1-(2-((1-((2-(2,6-dioxopiperidin-3-yl)-1,3-dioxoisoindolin-5-yl)glycyl)piperidin-4-yl)oxy)acetyl)piperidin-4-yl)-1H-pyrazol-4-yl)pyrazine-2-carboxylate] | 53.20 | 46.28 | 3.42 | 88.49 | 4.2 | – | – |
| Nc1ncc(-c2cnn(C3CCN(CC4CCN(CC5CCN(C(=O)c6ccc(C(=O)NC7CCC(=O)NC7=O)cc6)CC5)CC4)CC3)c2)nc1C(=O)O[C@@H](C(=O)Nc1ccc(F)cc1)c1ccccc1 (stereo partly drawn) [TDH-539, (R)-2-((4-fluorophenyl)amino)-2-oxo-1-phenylethyl 3-amino-6-(1-(1-((1-((1-(4-((2,6-dioxopiperidin-3-yl)carbamoyl)benzoyl)piperidin-4-yl)methyl)piperidin-4-yl)methyl)piperidin-4-yl)-1H-pyrazol-4-yl)pyrazine-2-carboxylate] | – | – | 70.67 | 89.04 | 0.68 | 46.99 | 30.33 |
| Nc1ncc(-c2cnn([C@H]3CCN(CCOCCOCCNC(=O)COc4cccc5c4C(=O)N(C4CCC(=O)NC4=O)C5=O)C3)c2)nc1C(=O)OC(C(=O)Nc1ccc(F)cc1)c1ccccc1 (stereo partly drawn) [TDH-265, 2-((4-fluorophenyl)amino)-2-oxo-1-phenylethyl 3-amino-6-(1-((3S)-1-(2-(2-(2-(2-((2-(2,6-dioxopiperidin-3-yl)-1,3-dioxoisoindolin-4-yl)oxy)acetamido)ethoxy)ethoxy)ethyl)pyrrolidin-3-yl)-1H-pyrazol-4-yl)pyrazine-2-carboxylate] | 19.18 | 41.68 | 11.99 | 49.83 | 4.4 | – | – |
| Nc1ncc(-c2cnn([C@H]3CCN(CCOCCOCCNC(=O)CNc4ccc5c(c4)C(=O)N(C4CCC(=O)NC4=O)C5=O)C3)c2)nc1C(=O)OC(C(=O)Nc1ccc(F)cc1)c1ccccc1 (stereo partly drawn) [TDH-264, 2-((4-fluorophenyl)amino)-2-oxo-1-phenylethyl 3-amino-6-(1-((3S)-1-(2-(2-(2-(2-((2-(2,6-dioxopiperidin-3-yl)-1,3-dioxoisoindolin-5-yl)amino)acetamido)ethoxy)ethoxy)ethyl)pyrrolidin-3-yl)-1H-pyrazol-4-yl)pyrazine-2-carboxylate] | 23.38 | 40.72 | 65.05 | 53.98 | 3.4 | – | – |
| Nc1ncc(-c2cnn(C3CCN(CCC4CCN(C(=O)C5CCN(C6=CC(=O)N(C7CCC(=O)NC7=O)C6=O)CC5)CC4)CC3)c2)nc1C(=O)O[C@@H](C(=O)Nc1ccc(F)cc1)c1ccccc1 (stereo partly drawn) [TDH-524, (R)-2-((4-fluorophenyl)amino)-2-oxo-1-phenylethyl 3-amino-6-(1-(1-(2-(1-(1-(1-(2,6-dioxopiperidin-3-yl)-2,5-dioxo-2,5-dihydro-1H-pyrrol-3-yl)piperidine-4-carbonyl)piperidin-4-yl)ethyl)piperidin-4-yl)-1H-pyrazol-4-yl)pyrazine-2-carboxylate] | – | – | 89.35 | 83.06 | 0.99 | 48.61 | 15.69 |
| Nc1ncc(-c2cnn(C3CCN(CC4CN(C(=O)COc5ccc6c(c5)C(=O)N(C5CCC(=O)NC5=O)C6=O)CCO4)CC3)c2)nc1C(=O)OC(C(=O)Nc1ccc(F)cc1)c1ccccc1 (stereo not shown) [TDH-309, 2-((4-fluorophenyl)amino)-2-oxo-1-phenylethyl 3-amino-6-(1-(1-((4-(2-((2-(2,6-dioxopiperidin-3-yl)-1,3-dioxoisoindolin-5-yl)oxy)acetyl)morpholin-2-yl)methyl)piperidin-4-yl)-1H-pyrazol-4-yl)pyrazine-2-carboxylate] | 75.1 | 78.37 | 76.12 | 77.55 | 2.2 | – | – |
| Nc1ncc(-c2cnn(C3CCN(CCOCCNc4cccc5c4C(=O)N(C4CCC(=O)NC4=O)C5=O)CC3)c2)nc1C(=O)O[C@@H](C(=O)Nc1ccc(F)cc1)c1ccccc1 (stereo partly drawn) [TDH-130, (R)-2-((4-fluorophenyl)amino)-2-oxo-1-phenylethyl 3-amino-6-(1-(1-(2-(2-((2-(2,6-dioxopiperidin-3-yl)-1,3-dioxoisoindolin-4-yl)amino)ethoxy)ethyl)piperidin-4-yl)-1H-pyrazol-4-yl)pyrazine-2-carboxylate] | 40.74 | 27.69 | 58.3 | 24.87 | 11 | – | – |
| Nc1ncc(-c2cnn(C3CCN(CCC4CCN(C(=O)COc5cccc6c5C(=O)N(C5CCC(=O)NC5=O)C6=O)CC4)CC3)c2)cc1C(=O)OC(C(=O)Nc1ccc(F)cc1)c1ccccc1 (stereo not shown) [TDH-301, 2-((4-fluorophenyl)amino)-2-oxo-1-phenylethyl 2-amino-5-(1-(1-(2-(1-(2-((2-(2,6-dioxopiperidin-3-yl)-1,3-dioxoisoindolin-4-yl)oxy)acetyl)piperidin-4-yl)ethyl)piperidin-4-yl)-1H-pyrazol-4-yl)nicotinate] | 61.06 | 26.7 | 76.3 | 89.97 | 2.9 | – | – |
| Nc1ncc(-c2cnn(C3CCN(CCCCCCNC(=O)C4CN(c5ccc6c(c5)C(=O)N(C5CCC(=O)NC5=O)C6=O)C4)CC3)c2)nc1C(=O)O[C@@H](C(=O)Nc1ccc(F)cc1)c1ccccc1 (stereo partly drawn) [TDH-114, (R)-2-((4-fluorophenyl)amino)-2-oxo-1-phenylethyl 3-amino-6-(1-(1-(6-(1-(2-(2,6-dioxopiperidin-3-yl)-1,3-dioxoisoindolin-5-yl)azetidine-3-carboxamido)hexyl)piperidin-4-yl)-1H-pyrazol-4-yl)pyrazine-2-carboxylate] | 13.68 | 38.3 | 8.68 | 62.79 | 0.83 | – | – |
